Patent US20130005698A1, “PHARMACEUTICAL FOR PREVENTING OR TREATING AN INNER EAR DISORDER” (University of Tsukuba, priority 2010, published 2013)

Experiments:
[1] = system: high-level noise exposure mice; assay: Evaluation of inner ear disorders in high-level noise exposure mice models (ABR threshold, cochlear hair cell loss); assay type: in vivo, B6 mice; details: for effect on increase of the auditory brainstem response (ABR) threshold caused by exposure to high-level noise: one week and two weeks after exposure
Experimental: The test was carried out using high-level noise exposure mice. […] The auditory brainstem response (ABR) threshold was measured immediately before the exposure to high-level noise (initial value). At 1 week and 2 weeks after the exposure for 4 hours, the ABR was measured. For the prevention test, after measuring the ABR threshold at 2 weeks after, the inner ears were excised and fixed so as to allow pathological assessment of the loss of two types of hair cells, or inner and outer hair cells within the cochlea. The pathological assessment of the hair cell loss was carried out on the inner hair cells (one line of inner hair cells is represented by IHC) and outer hair cells (three lines of outer hair cells are represented by OHC 1, 2, and 3 from the inside to outside). The verification was carried out by analysis of variance (Fisher's test as post-hoc test). The mice were divided into two groups: a group exposed to high-level noise (control group, n=10), and a group exposed to high-level noise and administrated with fidarestat at a dose of 32 mg/kg/day (fidarestat-administrated group, n=10). The ABR and pathological assessment were carried out in 10 and 5 mice of each group, respectively. Fidarestat was administered mixed with the feed during the period from two days before to two weeks after the exposure to high-level noise. The mice were divided into five groups: a group exposed to high-level noise (control group, n=6), two group exposed to high-level noise and administrated with fidarestat at doses of 8 mg/kg/day or 32 mg/kg/day (fidarestat-administrated groups, n=6), a group exposed to high-level noise, and administrated with prednisolone at a dose of 1 mg/kg/day (prednisolone-administrated group, n=6), and a group exposed to high-level noise, and administrated of combination with prednisolone at a dose of 1 mg/kg/day and fidarestat at a dose of 32 mg/kg/day (combination use group, n=6). The ABR was carried out in 6 mice of each group. Fidarestat was administered mixed with the feed during the period immediately after to two weeks after the exposure to high-level noise. Prednisolone was orally administered immediately after the exposure to high-level noise.

[2] = system: outer hair cells of the organ of Corti; assay: Gentamicin-induced loss of outer hair cells model (cultured organ of Corti); assay type: cell-based, SD rats; details: 48 hours culture; for loss rate of gentamicin-induced outer hair cells loss: control 50%
Experimental: After excision of the cochlea from SD rats of 3-5 days old, lateral walls were removed, and then the basal turn of the organ of Corti was extracted. The organ of Corti was incubated overnight, and then cultured in culture solutions containing gentamicin ([…]) and fidarestat at different concentrations (0, 0.05, 0.1, 0.2, 0.5, 1, and 2 μM) for 48 hours. After culturing, the organ of corti was fixed with 4% paraformaldehyde. The culture solution was a Dulbecco's modified eagles medium (DMEM solution) containing 10% fetal bovine serum, HEPES ([…]), and penicillin G ([…]), and the organ was cultured at 37° C., 5% CO2, at a humidity of 95%.

## NC(=O)[C@@H]1C[C@]2(NC(=O)NC2=O)c2cc(F)ccc2O1 [fidarestat, (2S,4S)-6-fluoro-2′,5′-dioxospiro[chroman-4,4′-imidazolidine]-2-carboxamide]
[1]; fidarestat 32 mg/kg/day vs prednisolone 1 mg/kg/day
  therapeutic effect on ABR threshold increase compared to prednisolone-administrated group: equivalent effect
[1]; prophylactic 32 mg/kg/day, two weeks after exposure to high-level noise
  effect on increase of the loss rate of cochlear outer hair cells: significantly inhibited
[1]; prophylactic administration, 32 mg/kg/day mixed with feed from two days before to two weeks after exposure
  effect on increase of the auditory brainstem response (ABR) threshold caused by exposure to high-level noise: significantly inhibited
[1]; therapeutic administration, mixed with feed from immediately after to two weeks after exposure
  effect on increase of the auditory brainstem response (ABR) threshold caused by exposure to high-level noise: significantly inhibited
[2]; fidarestat 0.1 μM
  loss rate of gentamicin-induced outer hair cells loss: significantly reduced
[2]; fidarestat 0.5 μM or more
  outer hair cells survival: 75%
  loss rate of gentamicin-induced outer hair cells loss: 25%
